Marks after values point to notes of the source that are not given here. Numbered stars: 1 amine (or outer) side, 2 acyl side, 3 side chain; on linkers, the order of the positions; unused ones are H or OH. Bridge positions count the residues as written; N and C are the ends. Square brackets hold non-standard residues; d marks the D form. Peptide text beside a SMILES is read from it. * marks the point of attachment. C20 diacid = O=C(O)CCCCCCCCCCCCCCCCCCC(=O)*; Pro(4R-NH2) = N[C@H]1CN[C@H](C(=O)O)C1; γGlu = O=C(O)[C@H](CCC(=O)[*:2])N[*:1]; Hyp = O=C(O)[C@@H]1C[C@@H](O)CN1; NMeI = CC[C@H](C)[C@H](NC)C(=O)O; Sar = CNCC(=O)O
How the values were obtained:
[1] = Assessment of physical stability: fibril formation detected with Thioflavin T (ThT), lag-time; format: physicochemical; details: 1 mg/ml peptide, 40 µM ThT, FND = Fibrillation not detected; for Fibrillation lag time (hours) pH 4.0 (Ac): 50 mM acetate buffer pH 4.0, 96 hours at 40°C; for Fibrillation lag time (hours) pH 7.0 (His): 50 mM histidine buffer pH 7.0, 96 hours at 40°C; for Fibrillation lag time (hours) pH 7.0 (Ph): 50 mM phosphate buffer pH 7.0, 96 hours at 40°C
Summary of the method: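 Test peptide at 1 mg/ml with 40 µM ThT in 50 mM phosphate (pH 7.0), 50 mM histidine (pH 7.0) or 50 mM acetate (pH 4.0), in triplicate, 40° C. for 96 h. Fluorescence read every 10 min after 300 s agitation. Lag-time (h) taken as intersection of linear fits to initial stable and growth phases.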

[2] = Assessment of chemical stability: normalized purity by RP-HPLC after incubation at 40 °C; format: physicochemical; details: normalized purity (T=0 set to 100), 0.2 mg/ml; for Chem. stability; 7 days, 40°C pH 4: pH 4, 7 days; for Chem. stability; 7 days, 40°C pH 7.5: pH 7.5, 7 days; for Chem. stability; 7 days, 40°C pH 9: pH 9, 7 days
Experimental: Samples of each test peptide were dissolved in MilliQ™ water, and the pH of the solution was adjusted to pH 4, pH 7.5 or pH 9, respectively, using either HCI or NaOH. The final peptide concentration was 0.2 mg/ml. Samples were placed in glass vials and incubated at 40 °C. The samples were analyzed by RP-HPLC on a C8 column with gradient elution using an ammonium formate/water eluent system, or on a C18 column with gradient elution using a trifluoroacetic acid/water eluent system. The area-percentage (area-%) of the main peak after incubation time T = t (relative to time T = 0) was determined by UV spectroscopy at 220 nm.
The purity was first determined as follows: Purity(area−%) = (area of main peak/total area of all peaks) × 100. [formula]
The purity was then normalized between time points by setting purity at time 0 (T=0) to 100 for each pH value for a given peptide, as follows: Normalised area−%at time t(T = t) = [area−%(T = t)/area−%(T = 0)] × 100. [formula]
The normalized purity values in Table 2 were determined after 7 days of incubation. Table 2. EC50, chemical stability and fibrillation data for compounds of the invention

[3] = tested on: Sprague Dawley (SD) rats; experiment: Acute food intake and body weight in normal Sprague Dawley rats; format: in vivo; details: vehicle-corrected, dose 30 nmol/kg sc, once; for Body weight loss (%) after 96 hours: mean ± SEM, n = 8
Experimental: Sprague Dawley (SD) rats were obtained from Taconic A/S, Denmark. The animals arrived at least 7 days before the study start to allow acclimatization to experimental conditions. From arrival and throughout the study, the rats were housed in groups of 2 (n = 2) in a light-, temperature- and humidity-controlled room (reversed 12/12 h light/dark cycle: lights turned off during day-time and on during night-time; temperature 20-22°C; relative humidity 50-80%). Animals had access ad libitum to food (Altromin™ 1324, Brogaarden A/S, Gentofte, Denmark) and water (domestic quality tap water with citric acid added to pH ∼ 3.6) during the entire study. Stratification of rats was based on body weight (BW) on a cage-by-cage basis; mean BWs per cage were used as the basis for pairing four cages together in a group (n = 8 per group). A vehicle group and positive control group were included in each set of tests. Rats were dosed subcutaneously (sc) once in the morning immediately before turning off the lights, using a body weight-corrected dose of peptide (30 nmol/kg). Dosing volume was 5 ml/kg. Food intake was recorded manually at t = 0 (pre-dose) and at t = 4, 7, 10, 24, 48, 72 and 96 hours after dosing. Body weight was measured daily.
Statistical analyses on body weight were performed using GraphPad™ Prism version 5. The measured parameters were compared using unpaired t tests. Differences were considered statistically significant at p < 0.05. Data are means ± SEM; n =8.

Structure (SMILES) | Fibrillation lag time (hours) pH 4.0 (Ac) [1] | Fibrillation lag time (hours) pH 7.0 (His) [1] | Fibrillation lag time (hours) pH 7.0 (Ph) [1] | Chem. stability; 7 days, 40°C pH 4 [2] [area-%] | Chem. stability; 7 days, 40°C pH 7.5 [2] [area-%] | Chem. stability; 7 days, 40°C pH 9 [2] [area-%] | Food intake inhibition (%) after 48 hours [3] [%] | Body weight loss (%) after 96 hours [3] [%]
CC[C@H](C)[C@@H](C(=O)N[C@@H](CC(C)C)C(=O)N[C@@H](CO)C(=O)N[C@@H](CO)C(=O)N[C@H](C(=O)N[C@@H](CC(N)=O)C(=O)N[C@H](C(=O)NCC(=O)N[C@@H](CO)C(=O)N[C@@H](CC(N)=O)C(=O)N[C@H](C(=O)N1CCC[C@H]1C(N)=O)[C@@H](C)O)C(C)C)[C@@H](C)O)N(C)C(=O)[C@H](C)NC(=O)CN(C)C(=O)[C@H](Cc1ccccc1)NC(=O)[C@H](CC(N)=O)NC(=O)[C@H](CC(N)=O)NC(=O)[C@H](CO)NC(=O)[C@H](CO)NC(=O)[C@H](Cc1c[nH]cn1)NC(=O)[C@H](Cc1c[nH]cn1)NC(=O)[C@H](CC(C)C)NC(=O)[C@H](Cc1ccccc1)NC(=O)[C@H](CCC(=O)O)NC(=O)[C@H](C)NC(=O)[C@H](CC(C)C)NC(=O)[C@H](CCCNC(=N)N)NC(=O)[C@H](CCC(N)=O)NC(=O)[C@@H](NC(=O)[C@H](C)NC(=O)[C@@H]1CSSC[C@H](NC(=O)[C@H](CCCNC(=N)N)NC(=O)CC[C@H](NC(=O)CCCCCCCCCCCCCCCCCCC(=O)O)C(=O)O)C(=O)N[C@@H](CC(N)=O)C(=O)N[C@@H]([C@@H](C)O)C(=O)N[C@@H](C)C(=O)N[C@@H]([C@@H](C)O)C(=O)N1)[C@@H](C)O [Compound 1, [19CD]-isoGlu-RC()NTATC()ATQRLAEFLHHSSNNF-Gly(Me)-A-Ile(Me)-LSSTNVGSNTP-NH2] ({C20 diacid-γGlu}-RCNTATCATQRLAEFLHHSSNNF[Sar]A[NMeI]LSSTNVGSNTP-NH2; disulfide 2-7) | FND^§§ | FND | FND | 89 | 64 | 56 | 98 | 9 ± 1.8
CC[C@H](C)[C@@H](C(=O)N[C@@H](CC(C)C)C(=O)N[C@@H](CO)C(=O)N[C@@H](CO)C(=O)N[C@H](C(=O)N[C@@H](CC(N)=O)C(=O)N[C@H](C(=O)NCC(=O)N[C@@H](CO)C(=O)N[C@@H](CC(N)=O)C(=O)N[C@H](C(=O)N1CCC[C@H]1C(N)=O)[C@@H](C)O)C(C)C)[C@@H](C)O)N(C)C(=O)[C@H](C)NC(=O)CN(C)C(=O)[C@H](Cc1ccccc1)NC(=O)[C@H](CC(N)=O)NC(=O)[C@H](CC(N)=O)NC(=O)[C@H](CO)NC(=O)[C@H](CO)NC(=O)[C@H](CCCNC(=N)N)NC(=O)[C@H](Cc1c[nH]cn1)NC(=O)[C@H](CC(C)C)NC(=O)[C@H](Cc1ccccc1)NC(=O)[C@H](CCC(=O)O)NC(=O)[C@H](C)NC(=O)[C@H](CC(C)C)NC(=O)[C@H](CCCNC(=N)N)NC(=O)[C@H](CCC(N)=O)NC(=O)[C@@H](NC(=O)[C@H](C)NC(=O)[C@@H]1CSSC[C@H](NC(=O)[C@H](CCCCN)NC(=O)[C@H](CCCCN)NC(=O)CC[C@H](NC(=O)CCCCCCCCCCCCCCCCCCC(=O)O)C(=O)O)C(=O)N[C@@H](CC(N)=O)C(=O)N[C@@H]([C@@H](C)O)C(=O)N[C@@H](C)C(=O)N[C@@H]([C@@H](C)O)C(=O)N1)[C@@H](C)O [Compound 87, [19CD]-isoGlu-KKC()NTATC()ATQRLAEFLHRSSNNF-Gly(Me)-A-Ile(Me)-LSSTNVGSNTP-NH2] ({C20 diacid-γGlu}-KKCNTATCATQRLAEFLHRSSNNF[Sar]A[NMeI]LSSTNVGSNTP-NH2; disulfide 3-8) | 78^‡ hours | FND | 50^‡‡ hours | 63 | 39 | 40 | 98 | 10 ± 1.2
CC[C@H](C)[C@@H](C(=O)N[C@@H](CC(C)C)C(=O)N[C@@H](CO)C(=O)N[C@@H](CO)C(=O)N[C@H](C(=O)N[C@@H](CC(N)=O)C(=O)N[C@H](C(=O)NCC(=O)N[C@@H](CO)C(=O)N[C@@H](CC(N)=O)C(=O)N[C@H](C(=O)N1C[C@H](O)C[C@H]1C(N)=O)[C@@H](C)O)C(C)C)[C@@H](C)O)N(C)C(=O)[C@H](C)NC(=O)CN(C)C(=O)[C@H](Cc1ccccc1)NC(=O)[C@H](CC(N)=O)NC(=O)[C@H](CC(N)=O)NC(=O)[C@H](CO)NC(=O)[C@H](CO)NC(=O)[C@H](CCCNC(=N)N)NC(=O)[C@H](Cc1c[nH]cn1)NC(=O)[C@H](CC(C)C)NC(=O)[C@H](Cc1ccccc1)NC(=O)[C@H](CCC(=O)O)NC(=O)[C@H](C)NC(=O)[C@H](CC(C)C)NC(=O)[C@H](CCCNC(=N)N)NC(=O)[C@H](CCC(N)=O)NC(=O)[C@@H](NC(=O)[C@H](C)NC(=O)[C@@H]1CSSC[C@H](NC(=O)[C@H](CCCNC(=N)N)NC(=O)CC[C@H](NC(=O)CCCCCCCCCCCCCCCCCCC(=O)O)C(=O)O)C(=O)N[C@@H](CC(N)=O)C(=O)N[C@@H]([C@@H](C)O)C(=O)N[C@@H](C)C(=O)N[C@@H]([C@@H](C)O)C(=O)N1)[C@@H](C)O [Compound 105, [19CD]-isoGlu-RC()NTATC()ATQRLAEFLHRSSNNF-Gly(Me)-A-Ile(Me)-LSSTNVGSNT-Hyp-NH2] ({C20 diacid-γGlu}-RCNTATCATQRLAEFLHRSSNNF[Sar]A[NMeI]LSSTNVGSNT[Hyp]-NH2; disulfide 2-7) | FND | FND | FND | 57 | 57 | 42 |  | 7 ± 2.4
CC[C@H](C)[C@@H](C(=O)N[C@@H](CC(C)C)C(=O)N[C@@H](CO)C(=O)N[C@@H](CO)C(=O)N[C@H](C(=O)N[C@@H](CC(N)=O)C(=O)N[C@H](C(=O)NCC(=O)N[C@@H](CO)C(=O)N[C@@H](CC(N)=O)C(=O)N[C@H](C(=O)N1C[C@H](N)C[C@H]1C(N)=O)[C@@H](C)O)C(C)C)[C@@H](C)O)N(C)C(=O)[C@H](C)NC(=O)CN(C)C(=O)[C@H](Cc1ccccc1)NC(=O)[C@H](CC(N)=O)NC(=O)[C@H](CC(N)=O)NC(=O)[C@H](CO)NC(=O)[C@H](CO)NC(=O)[C@H](CCCNC(=N)N)NC(=O)[C@H](Cc1c[nH]cn1)NC(=O)[C@H](CC(C)C)NC(=O)[C@H](Cc1ccccc1)NC(=O)[C@H](CCC(=O)O)NC(=O)[C@H](C)NC(=O)[C@H](CC(C)C)NC(=O)[C@H](CCCNC(=N)N)NC(=O)[C@H](CCC(N)=O)NC(=O)[C@@H](NC(=O)[C@H](C)NC(=O)[C@@H]1CSSC[C@H](NC(=O)[C@H](CCCNC(=N)N)NC(=O)CC[C@H](NC(=O)CCCCCCCCCCCCCCCCCCC(=O)O)C(=O)O)C(=O)N[C@@H](CC(N)=O)C(=O)N[C@@H]([C@@H](C)O)C(=O)N[C@@H](C)C(=O)N[C@@H]([C@@H](C)O)C(=O)N1)[C@@H](C)O [Compound 110, [19CD]-isoGlu-RC()NTATC()ATQRLAEFLHRSSNNF-Gly(Me)-A-Ile(Me)-LSSTNVGSNT-Apr-NH2] ({C20 diacid-γGlu}-RCNTATCATQRLAEFLHRSSNNF[Sar]A[NMeI]LSSTNVGSNT[Pro(4R-NH2)]-NH2; disulfide 2-7) | FND | FND | FND | 74 | 66 | 59 | 98 | 11 ± 1.1
